Legend:
[1] = Blockade of pentylenetetrazole induced clonic convulsions, intragastric; type: in vivo, mice; settings: for ED50: Mus musculus, po
Procedure: Exp. Ther., 108, 168 (1953)]. […] Both test compounds were administered intragastrically at specific time periods prior to the pentylenetetrazole challenge, and the ED50 for blockade of clonic convulsions was determined for each time period. Duration of activity is inferred from increases in the ED50 with time.

[2] = Blockade of pentylenetetrazole induced clonic convulsions, intravenous; type: in vivo, mice; settings: for ED50: Mus musculus, read-out: ED50 (95% confidence limits), anti-pentylenetetrazole effect
[3] = Multiple VI-FR conflict procedure (anti-conflict, anti-anxiety); type: in vivo, squirrel monkey; settings: intragastric
[4] = Comparison of durations of anti-conflict activity, drug crossover design, 16 hours after treatment; type: in vivo, squirrel monkey; settings: molar equivalent dose, 16 hours later; for bar pressing rate during the conflict segments, % of pre-compound control levels: 14 squirrel monkeys, crossover
[5] = Potentiation of a sub-hypnotic dose of pentobarbital sodium (loss of righting reflex); type: in vivo, mice; settings: for ED50 (95% confidence limits), potentiation of pentobarbital sodium (loss of righting reflex): pentobarbital sodium 20 mg/kg i.p.
Excerpt: In this procedure an ED50 for loss of righting reflex was established.

[6] = Rotarod test (muscle relaxant); type: in vivo, mice; settings: intragastric; for ED50: Mus musculus, po, read-out: Rotarod ED50 (95% confidence limits)
Procedure: Using this procedure [after Dunham, N.W. and T.S. Miya, J. Amer. Pharm. […] The compounds were administered intragastrically to mice at varying time periods before being placed on the horizontal rotating (4.4 rpm) rod. Different groups of mice were assigned to each time period so that a subject was tested only once. A testing trial consisted of two opportunities to stay on the rod for one minute. ED50 's were calculated for each time period.

[7] = 5 min, read-out: ED50 (95% confidence limits), anti-pentylenetetrazole effect, 5 min
[8] = 0.5 h, read-out: ED50 (95% confidence limits), anti-pentylenetetrazole effect, 30 min
[9] = read-out: ED50 (95% confidence limits), anti-pentylenetetrazole effect, 15 min
[10] = read-out: ED50 (95% confidence limits), anti-pentylenetetrazole effect, 1 hour
[11] = read-out: ED50 (95% confidence limits), anti-pentylenetetrazole effect, 2 hours
[12] = read-out: ED50 (95% confidence limits), anti-pentylenetetrazole effect, 4 hours
[13] = read-out: ED50 (95% confidence limits), anti-pentylenetetrazole effect, 8 hours
[14] = intragastric, .25 hours, 15 min

Q: Which “time to peak anti-pentylenetetrazole activity” value [1] does the source give for Clc1ccc2c(c1)C(c1ccccc1Cl)=NCCN2C1=NCCO1 [Compound I, 7-chloro-5-(o-chlorophenyl)-2,3-dihydro-1-(2-oxazolin-2-yl)-1H-1,4-benzodiazepine] here?
A: ≤ 15 min

Q: And the “change of ED50 in 30 minutes” value ([1]; 30 minutes)?
A: nearly doubled

Q: What about the “increase of ED50 by 8 hours” value [1] of the same compound?
A: about 20 fold

Q: And the ED50 [1, 7]?
A: 3.8 mg/kg

Q: And the ED50 [1, 8]?
A: 1.9 mg/kg

Q: And the ED50 [1, 9]?
A: 1 mg/kg

Q: What about the ED50 [1, 10] of the same compound?
A: 1.8 mg/kg

Q: And the ED50 [1, 11]?
A: 6.2 mg/kg

Q: And the ED50 [1, 12]?
A: 7.1 mg/kg

Q: And the ED50 [1, 13]?
A: 19.6 mg/kg

Q: What about the duration of activity ([1]; compared with diazepam) of the same compound?
A: much shorter duration of activity than Diazepam

Q: And the ED50 ([2]; 1 min, intravenous, 1 min)?
A: 0.12 mg/kg

Q: And the ED50 ([2]; 0.5 h, intravenous, 30 min)?
A: 0.23 mg/kg

Q: What about the ED50 ([2]; intravenous, 15 min) of the same compound?
A: 0.18 mg/kg

Q: And the ED50 ([2]; intravenous, 1 hour)?
A: 0.57 mg/kg

Q: And the ED50 ([2]; intravenous, 2 hours)?
A: 1.44 mg/kg

Q: And the ED50 ([2]; intravenous, 4 hours)?
A: 4.79 mg/kg

Q: And the ED50 ([2]; intravenous, 8 hours)?
A: 17.8 mg/kg

Q: What about the “time to peak activity” value ([2]; intravenous) of the same compound?
A: one

Q: What about the anti-convulsant effectiveness ([2]; intravenous as well as intragastric route) of the same compound?
A: effective as an anti-convulsant

Q: And the “increase of ED50 over the 8 hour period” value ([2]; intravenous, 8 hours)?
A: ~150 fold

Q: And the duration of activity ([2]; intravenous, compared with diazepam)?
A: shorter duration of activity

Q: What about the “Conflict (FR) bar pressing rate, percentage of average pre-compound control rate” value ([3]; 1.26 mg/kg, N 5) of the same compound?
A: 1519%

Q: What about the “Non-Conflict (VI) bar pressing rate, percentage of average pre-compound control rate” value ([3]; 1.26 mg/kg, N 5) of the same compound?
A: 46%

Q: And the “Conflict (FR) bar pressing rate, percentage of average pre-compound control rate” value ([3]; .07 mg/kg, N 5)?
A: 281%

Q: And the “Non-Conflict (VI) bar pressing rate, percentage of average pre-compound control rate” value ([3]; .07 mg/kg, N 5)?
A: 100%

Q: What about the “dose response of bar pressing rates during the conflict segment” value ([3]; .07 to 1.26 mg/kg) of the same compound?
A: clear dose responsive increase in bar pressing rates during the conflict segment

Q: And the “Conflict (FR) bar pressing rate, percentage of average pre-compound control rate” value ([3]; .126 mg/kg, N 6)?
A: 514%

Q: And the “Non-Conflict (VI) bar pressing rate, percentage of average pre-compound control rate” value ([3]; .126 mg/kg, N 6)?
A: 101%

Q: And the “Conflict (FR) bar pressing rate, percentage of average pre-compound control rate” value ([3]; .404 mg/kg, N 6)?
A: 1286%

Q: And the “Non-Conflict (VI) bar pressing rate, percentage of average pre-compound control rate” value ([3]; .404 mg/kg, N 6)?
A: 100%

Q: What about the “duration of anti-anxiety (anti-conflict) action, in words” value [4] of the same compound?
A: shorter duration of action of anti-anxiety effect

Q: And the “bar pressing rate during the conflict segments, % of pre-compound control levels” value [4]?
A: 123%

Q: And the “duration of sedative-hypnotic activity” value ([5]; compared with a standard benzodiazepine (diazepam))?
A: shorter duration of sedative-hypnotic activity

Q: What about the “ED50 (95% confidence limits), potentiation of pentobarbital sodium (loss of righting reflex)” value ([5]; intragastric, 1.0 hours) of the same compound?
A: 24.1(17.9-32.4) mg/kg

Q: What about the “ED50 (95% confidence limits), potentiation of pentobarbital sodium (loss of righting reflex)” value ([5]; intragastric, 2.0 hours) of the same compound?
A: 39.1(28.1-54.3) mg/kg

Q: And the “ED50 (95% confidence limits), potentiation of pentobarbital sodium (loss of righting reflex)” value [5, 14]?
A: 5.6(3.8-8.4) mg/kg

Q: What about the “increase of ED50 for potentiating pentobarbital sodium” value ([5]; intragastric, two hour period) of the same compound?
A: about 7 fold

Q: What about the ED50 ([6]; 0.08 h, .08 hours) of the same compound?
A: 8.5 mg/kg

Q: What about the ED50 ([6]; 0.5 h, .5 hours) of the same compound?
A: 8.9 mg/kg

Q: And the ED50 ([6]; 1.0 hours)?
A: 24 mg/kg

Q: What about the ED50 ([6]; 2.0 hours) of the same compound?
A: 74.9 mg/kg

Q: And the ED50 ([6]; .25 hours)?
A: 2.9 mg/kg

Q: And the “increase of rotarod ED50 from 15 minutes to 2 hours” value [6]?
A: 25 fold

Q: And the “time to peak effect (rotarod)” value [6]?
A: ≤ 15 min

Q: And the “duration of action (rotarod)” value ([6]; compared with diazepam)?
A: shorter duration of action

Q: What about the “loss of potency over the two hour period (rotarod)” value ([6]; two hours) of the same compound?
A: rapidly lost potency

Q: With CN1C(=O)CN=C(c2ccccc2)c2cc(Cl)ccc21 [Diazepam, diazepam, reference compound] as the compound, how does the “time to peak anti-pentylenetetrazole activity” value [1] read?
A: ≤ 15 min

Q: What about the “increase of ED50 by 8 hours” value [1] of the same compound?
A: 2 fold

Q: What about the ED50 [1, 7] of the same compound?
A: 1.1 mg/kg

Q: What about the ED50 [1, 8] of the same compound?
A: 0.8 mg/kg

Q: And the ED50 [1, 9]?
A: 0.9 mg/kg

Q: And the ED50 [1, 10]?
A: 0.8 mg/kg

Q: What about the ED50 [1, 11] of the same compound?
A: 0.7 mg/kg

Q: And the ED50 [1, 12]?
A: 1.6 mg/kg

Q: And the ED50 [1, 13]?
A: 1.4 mg/kg

Q: And the ED50 ([2]; 1 min, intravenous, 1 min)?
A: 0.07 mg/kg

Q: What about the ED50 ([2]; 0.5 h, intravenous, 30 min) of the same compound?
A: 0.23 mg/kg

Q: And the ED50 ([2]; intravenous, 15 min)?
A: 0.26 mg/kg

Q: And the ED50 ([2]; intravenous, 1 hour)?
A: 0.48 mg/kg

Q: And the ED50 ([2]; intravenous, 2 hours)?
A: 0.75 mg/kg

Q: What about the ED50 ([2]; intravenous, 4 hours) of the same compound?
A: 1.16 mg/kg

Q: And the ED50 ([2]; intravenous, 8 hours)?
A: 1.78 mg/kg

Q: What about the “increase of ED50 over the 8 hour period” value ([2]; intravenous, 8 hours) of the same compound?
A: 25 fold

Q: And the “duration of anti-anxiety (anti-conflict) action, in words” value [4]?
A: still produced pronounced anti-conflict effects

Q: And the “bar pressing rate during the conflict segments, % of pre-compound control levels” value [4]?
A: 1265%

Q: And the “ED50 (95% confidence limits), potentiation of pentobarbital sodium (loss of righting reflex)” value ([5]; intragastric, 1.0 hours)?
A: 3.8(2.7-5.4) mg/kg

Q: And the “ED50 (95% confidence limits), potentiation of pentobarbital sodium (loss of righting reflex)” value ([5]; intragastric, 2.0 hours)?
A: 3.6(2.4-5.4) mg/kg

Q: And the “ED50 (95% confidence limits), potentiation of pentobarbital sodium (loss of righting reflex)” value [5, 14]?
A: 4.1(2.7-6.3) mg/kg

From patent US4208327A, “5-Aryl-1-(2-oxazolin-2-yl)-1H-1,4-benzodiazepines and related compounds” (G. D. Searle & Co., priority 1979, dated 1980)
